The source of these data is ChEMBL document CHEMBL2074254, “Substrate specificity of sinusoidal bile acid and organic anion uptake systems in rat and human liver” (Hepatology, 1997).

The series has as its target T1, Hepatic sodium/bile acid cotransporter (Homo sapiens, UniProt Q14973).
T1 sequence (Q14973 whole entry): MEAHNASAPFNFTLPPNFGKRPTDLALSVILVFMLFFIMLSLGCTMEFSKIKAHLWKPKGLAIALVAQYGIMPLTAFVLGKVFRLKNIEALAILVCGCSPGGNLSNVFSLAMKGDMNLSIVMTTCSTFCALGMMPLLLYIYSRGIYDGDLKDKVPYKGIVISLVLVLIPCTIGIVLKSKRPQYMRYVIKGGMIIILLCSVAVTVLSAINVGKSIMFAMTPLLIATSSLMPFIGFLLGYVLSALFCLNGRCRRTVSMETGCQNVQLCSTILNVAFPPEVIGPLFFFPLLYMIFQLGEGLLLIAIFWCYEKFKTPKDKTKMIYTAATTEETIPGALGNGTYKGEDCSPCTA
As to the kind of experiment: TP_TRANSPORTER: uptake in Xenopus laevis oocytes. The class given is functional, cell-based. To be noted: oocyte.

SMILES strings stand for the structures.

On to `C[C@H](CCC(=O)NCC(=O)O)[C@H]1CC[C@H]2[C@@H]3[C@H](O)C[C@@H]4C[C@H](O)CC[C@]4(C)[C@H]3C[C@H](O)[C@]12C` [GLYCOCHOLIC ACID], for which the Activity entry is “substrate [+]”.
For `O=C1OC(c2ccc(O)c(S(=O)(=O)[O-])c2)(c2ccc(O)c(S(=O)(=O)[O-])c2)c2c(Br)c(Br)c(Br)c(Br)c21.[Na+].[Na+]` [SULFOBROMOPHTHALEIN SODIUM] the value was “substrate [+]”.
For `C[C@]12CC[C@@H]3c4ccc(OS(=O)(=O)O)cc4CC[C@H]3[C@@H]1CCC2=O` [ESTRONE SULFURIC ACID] the value was “substrate [+]”; for `C[C@H](CCC(=O)NCCS(=O)(=O)O)[C@H]1CC[C@H]2[C@@H]3[C@@H](O)C[C@@H]4C[C@H](O)CC[C@]4(C)[C@H]3CC[C@]12C` [TAURURSODIOL], “substrate [+]”; for `C[C@H](CCC(=O)NCCS(=O)(=O)O)[C@H]1CC[C@H]2[C@@H]3[C@H](O)C[C@@H]4C[C@H](O)CC[C@]4(C)[C@H]3CC[C@]12C` [TAUROCHENODEOXYCHOLATE], “substrate [+]”.
